Drawing on patent publication US7879876B2, “Sulfonamide derivatives and use thereof for the modulation of metalloproteinases” (Merck Serono SA, priority 2005, dated 2011), this text covers inhibition and IC50 for 13 compounds.

Where a name gives a salt, the structure may show the parent alone.

Common to all, as to assay type: biochemical
Assay [1] has as its target MMP13 (Homo sapiens, UniProt P45452). Description: MMP13 inhibition (Table 1). The conditions noted are these: @ 0.1 μM; read-out: percentage inhibition MMP13.
The target in assay [2] is metalloelastase (MMP-12) (Homo sapiens, UniProt P39900). Description: MMP-12 enzyme inhibition assay (coumarin-labelled peptide substrate). The conditions noted are these: read-out: IC50 MMP12. On the procedure: (§1) Compounds of the invention were tested to assess their activities as inhibitors of MMP-1, MMP-2, MMP-9, MMP-14, MMP-12 and TACE. MMP-9 Assay Protocol
metalloelastase (MMP-12), sequence (P39900 106-470): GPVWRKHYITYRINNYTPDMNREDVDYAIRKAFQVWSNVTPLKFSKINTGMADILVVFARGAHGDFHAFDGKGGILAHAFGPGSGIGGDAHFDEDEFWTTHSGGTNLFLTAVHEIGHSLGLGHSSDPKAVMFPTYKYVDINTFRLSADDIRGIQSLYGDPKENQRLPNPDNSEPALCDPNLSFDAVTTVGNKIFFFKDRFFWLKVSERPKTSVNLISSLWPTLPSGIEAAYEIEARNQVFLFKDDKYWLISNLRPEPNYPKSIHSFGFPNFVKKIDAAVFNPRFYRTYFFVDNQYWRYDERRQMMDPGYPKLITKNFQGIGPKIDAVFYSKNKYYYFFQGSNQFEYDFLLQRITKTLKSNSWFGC
(§2) Compounds of the invention were tested for inhibitory activity against 92 kDa gelatinase (MMP-9) in an assay using a coumarin-labeled peptide substrate, (7-methoxycoumarin-4-yl)acetyl-Pro-Leu-Gly-Leu-(3-[2,4-dinitrophenyl]-L-2,3diaminopropionyl)-Ala-Arg-NH2 (McaPLGLDpaAR) (Knight et al, FEBS Lett. 1992; 263-266).
(§3) Stock solutions were made up as follows: Assay Butter: 100 mM Tris-HCl pH 7.6 containing 100 mM NaCl, 10 mM CaCl2, and 0.05% Brij 35.
(§4) Substrate: 0.4 mM McaPLGLDpaAR (from Bachem) (0.437 mg/ml) stock solution in 100% DMSO (stored at −20° C.). Dilute to 8 μM in assay butter.
(§5) Enzyme: Recombinant human 92 kDa gelatinase (MMP-9; APMA (4-aminophenyl mercuric acetate)-activated if necessary) appropriately diluted in assay butter.
(§6) Test Compounds were prepared initially as 10 mM compound solution in 100% DMSO, diluted to 1 mM in 100% DMSO, then serially diluted 3-fold in 100% DMSO across columns 1-10 of a 96-well microtitre plate Assay concentration range, 100 μM (column 1) to 5.1 nM (column 10).
(§7) The assay was performed in a total volume of 100 μL per well in 96-well microtitre plates. Activated enzyme (20 μL) was added to the wells followed by 20 μL of assay butter. Appropriate concentrations of test compounds dissolved in 10 μL of DMSO were then added followed by 50 μL of McaPLGLDpaAR (8 μM, prepared by dilution of DMSO stock in assay butter). For each as say ten concentrations of test compound were examined in duplicate. Control wells lack either enzyme or test compound. The reactions were incubated at 37° C. for 2 hours. The fluorescence at 405 nm was measured immediately with an SLT Fluostar fluorometer (SL T Labinstruments GmbH, Grödig, Austria) using 320 nm excitation, without stopping the reaction.
(§8) The effect of the test compound was determined from the dose response curve generated by the 10 duplicate concentrations of inhibitor. The IC50 (the concentration of compound required to give a 50% decrease in enzyme activity) was obtained by fitting data to the equation, Y=a+((b−a)/(1+(c/X)^d)). (Y=inhibition achieved for a particular dose; X=the dose in nM; a=minimum y or zero % inhibition; b=maximum y or 100% inhibition; c=is the IC50; d=is the slope). The result was rounded to one significant figure.
Compounds of the invention were tested for inhibitory activity against metalloelastase (MMP-12) in an assay using a coumarin-labelled peptide substrate, (7-methoxycoumarin-4-yl)acetyl-Pro-Leu-Gly-Leu-(3-[2,4-dinitrophenyl]-L-2,3-diaminopropionyl)-Ala-Arg-NH2 (McaPLGLDpaAR) (Knight et al, 1992, above). The protocol for this assay was as described for the MMP-9 assay above.

In assay [3] the target is 92 kDa gelatinase (MMP-9) (Homo sapiens, UniProt P14780). The assay can be described thus: MMP-9 enzyme inhibition assay (coumarin-labeled peptide substrate). The conditions noted are these: read-out: IC50 MMP9. As to the method: as §1, §2, §3, §4, §5, §6, §7, §8
92 kDa gelatinase (MMP-9), sequence (P14780 107-707 limits assumed): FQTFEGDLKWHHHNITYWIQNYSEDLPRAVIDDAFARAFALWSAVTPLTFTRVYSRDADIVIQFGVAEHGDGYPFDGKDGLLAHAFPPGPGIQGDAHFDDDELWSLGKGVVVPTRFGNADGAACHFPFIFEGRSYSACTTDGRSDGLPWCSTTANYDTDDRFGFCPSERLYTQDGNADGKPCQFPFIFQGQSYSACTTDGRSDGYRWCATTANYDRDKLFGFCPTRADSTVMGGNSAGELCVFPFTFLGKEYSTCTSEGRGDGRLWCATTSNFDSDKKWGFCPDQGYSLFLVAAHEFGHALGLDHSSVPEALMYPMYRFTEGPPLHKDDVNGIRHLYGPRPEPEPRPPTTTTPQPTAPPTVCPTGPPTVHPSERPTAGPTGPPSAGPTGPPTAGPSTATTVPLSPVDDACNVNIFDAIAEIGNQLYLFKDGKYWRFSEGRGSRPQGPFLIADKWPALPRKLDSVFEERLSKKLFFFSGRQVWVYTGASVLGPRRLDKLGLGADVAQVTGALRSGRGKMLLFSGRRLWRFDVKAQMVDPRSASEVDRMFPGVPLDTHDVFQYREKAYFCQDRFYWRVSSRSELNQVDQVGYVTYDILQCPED
Assay [4] concerns the target T1, gelatinase A (MMP-2) (Homo sapiens, UniProt P08253).
T1 sequence (P08253 110-660): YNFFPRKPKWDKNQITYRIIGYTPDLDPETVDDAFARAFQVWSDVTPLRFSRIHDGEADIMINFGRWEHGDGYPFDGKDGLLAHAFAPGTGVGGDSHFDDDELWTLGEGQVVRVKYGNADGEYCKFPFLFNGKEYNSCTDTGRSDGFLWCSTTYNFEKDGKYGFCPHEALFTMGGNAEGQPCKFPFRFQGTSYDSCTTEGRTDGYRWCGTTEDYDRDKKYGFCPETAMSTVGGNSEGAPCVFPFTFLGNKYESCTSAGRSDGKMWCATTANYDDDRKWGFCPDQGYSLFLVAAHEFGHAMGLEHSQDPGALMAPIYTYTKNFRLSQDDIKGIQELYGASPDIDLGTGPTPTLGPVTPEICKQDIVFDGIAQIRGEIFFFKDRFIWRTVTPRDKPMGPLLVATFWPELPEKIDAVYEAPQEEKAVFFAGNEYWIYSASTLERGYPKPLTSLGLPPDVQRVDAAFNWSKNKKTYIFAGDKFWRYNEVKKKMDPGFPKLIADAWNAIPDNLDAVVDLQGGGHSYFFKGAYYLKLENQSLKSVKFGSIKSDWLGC
Description: MMP-2 enzyme inhibition assay (coumarin-labelled peptide substrate). The conditions noted are these: read-out: IC50 MMP2. On the procedure:
Compounds of the invention were tested to assess their activities as inhibitors of MMP-1, MMP-2, MMP-9, MMP-14, MMP-12 and TACE. MMP-9 Assay Protocol […]
as §3
Substrate: 0.4 mM McaPLGLDpaAR (from Bachem) (0.437 mg/ml) stock solution in 100% DMSO (stored at −20° C.). Dilute to 8 μM in assay butter. […]
as §6, §7, §8
Compounds of the invention were tested for inhibitory activity against gelatinase A (MMP-2) in an assay using a coumarin-labelled peptide substrate, (7-methoxycoumarin-4-yl)acetyl-Pro-Leu-Gly-Leu-(3-[2,4-dinitrophenyl]-L-2,3diaminopropionyl)-Ala-Arg-NH2 (Mca PLGLDpaAR) (Knight et al, 1992, above). The protocol for this assay was as described for the MMP-9 assay above.

Assay [5] concerns the target MMP-14 (Homo sapiens, UniProt P50281). The assay can be described thus: MMP-14 enzyme inhibition assay (coumarin-labelled peptide substrate). The conditions noted are these: read-out: percentage inhibition MMP14. On the procedure:
as §1, §2, §3, §4, §5, §6, §7, §8
Compounds of the invention were tested for inhibitory activity against MMP-14 in an assay using a coumarin-labelled peptide substrate, (7-methoxycoumarin-4-yl)acetyl-Pro-Leu-Gly-Leu-(3-[2,4-dinitrophenyl]-L-2,3diaminopropionyl)-Ala-Arg-NH2 (Mca PLGLD paAR) (Knight et al, 1992, above). The protocol for this assay was as described for the MMP-9 assay above.

For assay [6], the target named is T2, collagenase (MMP-1) (Homo sapiens, UniProt P03956).
T2 sequence (P03956 100-469): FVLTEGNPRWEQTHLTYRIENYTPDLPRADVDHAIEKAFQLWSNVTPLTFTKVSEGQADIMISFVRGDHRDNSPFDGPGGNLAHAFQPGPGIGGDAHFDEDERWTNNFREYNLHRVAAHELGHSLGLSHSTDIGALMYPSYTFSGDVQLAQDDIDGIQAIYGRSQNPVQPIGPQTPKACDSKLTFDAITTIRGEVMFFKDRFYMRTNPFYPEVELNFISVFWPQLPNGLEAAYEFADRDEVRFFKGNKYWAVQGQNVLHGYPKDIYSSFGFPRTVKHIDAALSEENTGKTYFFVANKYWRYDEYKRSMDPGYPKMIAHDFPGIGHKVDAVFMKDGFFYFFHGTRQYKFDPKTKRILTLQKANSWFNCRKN
The assay can be described thus: MMP-1 enzyme inhibition assay (coumarin-labelled peptide substrate). The conditions noted are these: @ 5 μM; read-out: percentage inhibition MMP1. As to the method: as §1, §2, §3, §4, §5, §6, §7, §8
Compounds of the invention were tested for inhibitory activity against collagenase (MMP-1) in an assay using a coumarin-labelled peptide substrate, (7-methoxycoumarin-4-yl)acetyl-Pro-Leu-Gly-Leu-(3-[2,4-dinitrophenyl]-L-2,3diaminopropionyl)-Ala-Arg-NH2 (Mca PLGLDpaAR) (Knight et al, 1992, above). The protocol for this assay was as described for the MMP-9 assay above.

With `O=CN(O)C(CS(=O)(=O)N1CCc2ccccc2C1)c1cccnc1` (stereo not shown) [Example 11, N-[2-(3,4-dihydroisoquinolin-2(1H)-ylsulfonyl)-1-pyridin-3-ylethyl]-N-hydroxyformamide, hydrochloride salt], the inhibition at 0.1 µM in assay [1] was 15%. Besides, the IC50 is 26 nM in assay [2] and greater than 5000 nM in assay [3].

On to `CC(C)(C)OC(=O)N1CCC[C@@H]1[C@H](CS(=O)(=O)N1CCc2cc(Cl)c(Cl)cc2C1)N(O)C=O` (racemic) [Example 46, tert-butyl (2RS)-2-{(1RS)-2-[(6,7-dichloro-3,4-dihydro-isoquinolin-2(1H)-yl)sulfonyl]-1-[formyl(hydroxy)amino]ethyl}pyrrolidine-1-carboxylate], for which the IC50 in assay [4] was no less than 5000 nM; in assay [2], 460 nM. Further, the inhibition at 0.1 µM in assay [5] (@ 0.1 μM) was 19%.

In the case of `CC(C)Oc1ccc2c(c1)CN(S(=O)(=O)CC(C1CCCC1)N(O)C=O)CC2` (stereo not shown) [Example 78, N-{1-cyclopentyl-2-[(7-isopropoxy-3,4-dihydroisoquinolin-2(1H)-yl)sulfonyl]ethyl}-N-hydroxyformamide], the IC50 in assay [4] was greater than 5000 nM; in assay [2], 322 nM.

In the case of `CSCCC(CS(=O)(=O)N1CCc2ccc(C(C)(C)C)cc2C1)N(O)C=O` (stereo not shown) [Example 54, N-[1-{[(7-tert-butyl-3,4-dihydroisoquinolin-2(1H)-yl)-sulfonyl]methyl}-3-(methylthio)propyl]-N-hydroxyformamide], the results for the IC50 in assay [4] and in assay [2] were greater than 5000 nM and 234 nM, respectively.

As to `CCC(CC)C(CS(=O)(=O)N1CCc2cc(OC)c(OC)cc2C1)N(O)C=O` (stereo not shown) [Example 17, N-(1-{[(6,7-dimethoxy-3,4-dihydroisoquinolin-2(1H)-yl)sulfonyl]methyl}-2-ethylbutyl)-N-hydroxyformamide], the IC50 was greater than 5000 nM in assay [4], 103 nM in assay [2] and greater than 5000 nM in assay [3]. The inhibition at 5 µM in assay [6] and in assay [5] was 0% throughout.

As to `COc1cc2c(cc1OC)CN(S(=O)(=O)CC(N(O)C=O)C(C)(C)C)CC2` (stereo not shown) [Example 20, N-(1-{[(6,7-dimethoxy-3,4-dihydroisoquinolin-2(1H)-yl)sulfonyl]methyl}-2,2-dimethylpropyl)-N-hydroxyformamide], the values for the IC50 in assay [4], in assay [2] and in assay [3] were greater than 5000 nM, 280 nM and greater than 5000 nM, respectively. For the same compound, the inhibition at 5 µM in assay [6] and in assay [5] was 0% each time.

Regarding `COc1cc2c(cc1OC)CN(S(=O)(=O)CC(C1CCCC1)N(O)C=O)CC2` (stereo not shown) [Example 15, N-{1-cyclopentyl-2-[(6,7-dimethoxy-3,4-dihydroisoquinolin-2(1H)-yl)sulfonyl]ethyl}-N-hydroxyformamide], the IC50 is greater than 5000 nM in assay [4], 185 nM in assay [2] and greater than 5000 nM in assay [3]. Further, the inhibition at 5 µM in assay [6] and in assay [5] was 0% each time.

For `COc1cc2c(cc1OC)CN(S(=O)(=O)CC(C1CC1C(=O)O)N(O)C=O)CC2` (stereo not shown) [Example 71, 2-[2-[(6,7-dimethoxy-3,4-dihydroisoquinolin-2(1H)-yl)-sulfonyl]-1-[formyl(hydroxy)amino]ethyl]cyclopropanecarboxylic acid], the IC50 in assay [4] is greater than 5000 nM; in assay [2], 585 nM.

Regarding `CCOC(=O)C1CC1C(CS(=O)(=O)N1CCc2cc(OC)c(OC)cc2C1)N(O)C=O` (stereo not shown) [Example 67, ethyl 2-[2-[(6,7-dimethoxy-3,4-dihydroisoquinolin-2(1H)-yl)sulfonyl]-1-[formyl(hydroxy)amino]ethyl]cyclopropanecarboxylate], the IC50 is greater than 5000 nM in assay [4] and 111 nM in assay [2].

Regarding `O=CN(O)C(CS(=O)(=O)N1CCc2ccccc2C1)c1ccsc1` (stereo not shown) [Example 7, N-[2-(3,4-dihydroisoquinolin-2(1H)-ylsulfonyl)-1-(3-thienyl)ethyl]-N-hydroxyformamide], the values for the IC50 in assay [4], in assay [2] and in assay [3] were 784 nM, 18 nM and greater than 5000 nM, respectively. The inhibition at 5 µM stood at 31% in assay [6] and 71% in assay [5].

For the compound `CC(C)CC(CS(=O)(=O)N1CCc2ccc(OC(C)C)cc2C1)N(O)C=O` (stereo not shown) [Example 51, N-hydroxy-N-(1-{[(7-isopropoxy-3,4-dihydroisoquinolin-2(1H)-yl)sulfonyl]methyl}-3-methylbutyl)formamide], the 50% inhibitory concentration (IC50) in assay [4] is 1330 nM; in assay [2], 109 nM.

With `CC(C)(C)c1ccc2c(c1)CN(S(=O)(=O)CC(C1CCOCC1)N(O)C=O)CC2` (stereo not shown) [Example 66, N-[2-[(7-tert-butyl-3,4-dihydroisoquinolin-2(1H)-yl)sulfonyl]-1-(tetrahydro-2H-pyran-4-yl)ethyl]-N-hydroxyformamide], the IC50 in assay [4] was greater than 5000 nM; in assay [2], 209 nM.

With `COc1cc2c(cc1OC)CN(S(=O)(=O)CC(C1CC1)N(O)C=O)CC2` (stereo not shown) [Example 84, N-{1-cyclopropyl-2-[(6,7-dimethoxy-3,4-dihydro-isoquinolin-2(1H)-yl)sulfonyl]ethyl}-N-hydroxyformamide], the IC50 was greater than 5000 nM in assay [4] and 366 nM in assay [2].
